Assay results reported in ChEMBL document CHEMBL6177964 (Eur J Med Chem, 2025).
Each block holds one molecule with its values, some of them ahead of it. Calls of active or inactive are those of the source. No cut-off for these calls is given here. Residues, ends and D or L forms follow the SMILES beside them.

Assays:
[1] = target: T1, Angiotensin-converting enzyme (Homo sapiens, UniProt P12821); test: Inhibition of ACE (unknown origin) preincubated with compound for 5 mins and measured after 60 mins
[2] = target: T1, Angiotensin-converting enzyme; test: Inhibition of ACE (unknown origin)
[3] = target: T1, Angiotensin-converting enzyme; test: Binding affinity to ACE (unknown origin) assessed as change in entropy (-TdeltaS) at 800 to 1400 nM by isothermal titration calorimetric analysis; settings: dose 800-1400 nM
[4] = target: T1, Angiotensin-converting enzyme; test: Binding affinity to ACE (unknown origin) assessed as change in enthalpy at 800 to 1400 nM by isothermal titration calorimetric analysis; settings: dose 800-1400 nM
[5] = target: T1, Angiotensin-converting enzyme; test: Binding affinity to ACE (unknown origin) assessed as change in entropy (deltaS) at 800 to 1400 nM by isothermal titration calorimetric analysis; settings: dose 800-1400 nM
[6] = target: T1, Angiotensin-converting enzyme; test: Binding affinity to ACE (unknown origin) assessed as change in Gibbs free energy at 800 to 1400 nM by isothermal titration calorimetric analysis; settings: dose 800-1400 nM
[7] = target: T1, Angiotensin-converting enzyme; test: Binding affinity to ACE (unknown origin) assessed as dissociation constant by isothermal titration calorimetric analysis
[8] = target: T1, Angiotensin-converting enzyme; test: Binding affinity to ACE (unknown origin) measured at 20 mins
[9] = system: Rattus norvegicus; test: Acute antihypertensive activity in spontaneously hypertensive male Wistar Kyoto rat assessed as reduction in systolic blood pressure at 2.5 mg/kg administered via gavage measured after 4 hrs by tail-artery manometry; format: functional
[10] = system: Rattus norvegicus; test: Acute antihypertensive activity in spontaneously hypertensive male Wistar Kyoto rat assessed as reduction in diastolic blood pressure at 2.5 mg/kg administered via gavage measured after 6 hrs by tail-artery manometry; format: functional
[11] = system: Rattus norvegicus; test: Subacute antihypertensive activity in spontaneously hypertensive male Wistar Kyoto rat assessed as reduction in systolic blood pressure at 5 mg/kg administered via gavage and measured after 1 week by tail-artery manometry; format: functional, organism-based; settings: time 1.0 weeks
[12] = system: Rattus norvegicus; test: Subacute antihypertensive activity in spontaneously hypertensive male Wistar Kyoto rat assessed as reduction in diastolic blood pressure at 5 mg/kg administered via gavage and measured after 1 week by tail-artery manometry; format: functional, organism-based; settings: time 1.0 weeks
[13] = system: Rattus norvegicus; test: Subacute antihypertensive activity in spontaneously hypertensive male Wistar Kyoto rat assessed as reduction in systolic blood pressure at 5 mg/kg administered via gavage for 4 weeks and measured at 22 hrs post dose by tail-artery manometry; format: functional
[14] = system: Rattus norvegicus; test: Subacute antihypertensive activity in spontaneously hypertensive male Wistar Kyoto rat assessed as reduction in diastolic blood pressure at 5 mg/kg administered via gavage for 4 weeks and measured at 22 hrs post dose by tail-artery manometry; format: functional
[15] = system: Rattus norvegicus; test: Effect on spontaneously hypertensive male Wistar Kyoto rat assessed as reduction in serum ACE activity by measuring hippuric acid level at 5 mg/kg administered via gavage for 4 weeks and measured at 22 hrs post dose by RP-HPLC analysis; format: functional, organism-based
[16] = system: Rattus norvegicus; test: Effect on spontaneously hypertensive male Wistar Kyoto rat assessed as reduction in Ang II level in serum at 5 mg/kg administered via gavage for 4 weeks and measured at 22 hrs post dose by ELISA; format: functional, organism-based
[17] = system: Rattus norvegicus; test: Antihypertensive activity in spontaneously […] male Wistar Kyoto rat assessed as increase in fecal acetic acid level at 5 mg/kg administered via gavage for 4 weeks and measured at 22 hrs post dose by RP-HPLC analysis relative to control; format: functional
[18] = system: Rattus norvegicus; test: Antihypertensive activity in spontaneously […] male Wistar Kyoto rat assessed as increase in fecal propionic acid level at 5 mg/kg administered via gavage for 4 weeks and measured at 22 hrs post dose by RP-HPLC analysis relative to control; format: functional
[19] = system: Rattus norvegicus; test: Antihypertensive activity in spontaneously […] male Wistar Kyoto rat assessed as increase in fecal butyric acid level at 5 mg/kg administered via gavage for 4 weeks and measured at 22 hrs post dose by RP-HPLC analysis relative to control; format: functional
[20] = organism: Rattus norvegicus; test: Prevention of gut microbiota dysbiosis in spontaneously hypertensive male Wistar Kyoto rat model assessed as increase in shannon indices; format: functional, organism-based
[21] = organism: Rattus norvegicus; test: Prevention of gut microbiota dysbiosis in spontaneously hypertensive male Wistar Kyoto rat model assessed as increase in simpson indices; format: functional, organism-based
[22] = organism: Rattus norvegicus; test: Prevention of gut microbiota dysbiosis in spontaneously hypertensive male Wistar Kyoto rat model assessed as increase in bacteroidetes abundance; format: functional, organism-based
[23] = organism: Rattus norvegicus; test: Prevention of gut microbiota dysbiosis in spontaneously hypertensive male Wistar Kyoto rat model assessed as decrease in epsilonbacteraeota abundance; format: functional, organism-based
[24] = organism: Rattus norvegicus; test: Prevention of gut microbiota dysbiosis in spontaneously hypertensive male Wistar Kyoto rat model assessed as fold increase in lachnospiraceae abundance; format: functional
[25] = organism: Rattus norvegicus; test: Prevention of gut microbiota dysbiosis in spontaneously hypertensive male Wistar Kyoto rat model assessed as fold increase in rikenellaceae abundance; format: functional
[26] = organism: Rattus norvegicus; test: Prevention of gut microbiota dysbiosis in spontaneously hypertensive male Wistar Kyoto rat model assessed as fold increase in ruminococcaceae abundance; format: functional
[27] = organism: Rattus norvegicus; test: Prevention of gut microbiota dysbiosis in spontaneously hypertensive male Wistar Kyoto rat model assessed as increase in enterobacteriaceae abundance relative to control; format: functional
[28] = organism: Rattus norvegicus; test: Prevention of gut microbiota dysbiosis in spontaneously hypertensive male Wistar Kyoto rat model assessed as fold increase in ruminococcaceae UCG-014 abundance; format: functional
[29] = organism: Rattus norvegicus; test: Prevention of gut microbiota dysbiosis in spontaneously hypertensive male Wistar Kyoto rat model assessed as fold increase in oscillibacter abundance; format: functional
[30] = organism: Rattus norvegicus; test: Prevention of gut microbiota dysbiosis in spontaneously hypertensive male Wistar Kyoto rat model assessed as decrease in parabacteroides abundance relative to control; format: functional; set-up: scale not given: the % may be the effect or the level left
[31] = organism: Rattus norvegicus; test: Prevention of gut microbiota dysbiosis in spontaneously hypertensive male Wistar Kyoto rat model assessed as decrease in streptococcus abundance relative to control; format: functional; set-up: scale not given: the % may be the effect or the level left
[32] = organism: Rattus norvegicus; test: Prevention of gut microbiota dysbiosis in spontaneously hypertensive male Wistar Kyoto rat model assessed as fold increase in roseburia abundance; format: functional
[33] = organism: Rattus norvegicus; test: Prevention of gut microbiota dysbiosis in spontaneously hypertensive male Wistar Kyoto rat model assessed as fold increase in turicibacter abundance; format: functional
[34] = target: T1, Angiotensin-converting enzyme; test: Binding affinity to ACE (unknown origin)
[35] = system: Rattus norvegicus; test: Antihypertensive activity in spontaneously hypertensive male rat assessed as reduction in systolic blood pressure at 5 mg/kg, IG measured after 24 hrs by tail-cuff method; format: functional
[36] = system: Rattus norvegicus; test: Antihypertensive activity in spontaneously hypertensive male rat assessed as reduction in diastolic blood pressure at 5 mg/kg, IG measured after 24 hrs by tail-cuff method; format: functional

T1 sequence (P12821 whole entry): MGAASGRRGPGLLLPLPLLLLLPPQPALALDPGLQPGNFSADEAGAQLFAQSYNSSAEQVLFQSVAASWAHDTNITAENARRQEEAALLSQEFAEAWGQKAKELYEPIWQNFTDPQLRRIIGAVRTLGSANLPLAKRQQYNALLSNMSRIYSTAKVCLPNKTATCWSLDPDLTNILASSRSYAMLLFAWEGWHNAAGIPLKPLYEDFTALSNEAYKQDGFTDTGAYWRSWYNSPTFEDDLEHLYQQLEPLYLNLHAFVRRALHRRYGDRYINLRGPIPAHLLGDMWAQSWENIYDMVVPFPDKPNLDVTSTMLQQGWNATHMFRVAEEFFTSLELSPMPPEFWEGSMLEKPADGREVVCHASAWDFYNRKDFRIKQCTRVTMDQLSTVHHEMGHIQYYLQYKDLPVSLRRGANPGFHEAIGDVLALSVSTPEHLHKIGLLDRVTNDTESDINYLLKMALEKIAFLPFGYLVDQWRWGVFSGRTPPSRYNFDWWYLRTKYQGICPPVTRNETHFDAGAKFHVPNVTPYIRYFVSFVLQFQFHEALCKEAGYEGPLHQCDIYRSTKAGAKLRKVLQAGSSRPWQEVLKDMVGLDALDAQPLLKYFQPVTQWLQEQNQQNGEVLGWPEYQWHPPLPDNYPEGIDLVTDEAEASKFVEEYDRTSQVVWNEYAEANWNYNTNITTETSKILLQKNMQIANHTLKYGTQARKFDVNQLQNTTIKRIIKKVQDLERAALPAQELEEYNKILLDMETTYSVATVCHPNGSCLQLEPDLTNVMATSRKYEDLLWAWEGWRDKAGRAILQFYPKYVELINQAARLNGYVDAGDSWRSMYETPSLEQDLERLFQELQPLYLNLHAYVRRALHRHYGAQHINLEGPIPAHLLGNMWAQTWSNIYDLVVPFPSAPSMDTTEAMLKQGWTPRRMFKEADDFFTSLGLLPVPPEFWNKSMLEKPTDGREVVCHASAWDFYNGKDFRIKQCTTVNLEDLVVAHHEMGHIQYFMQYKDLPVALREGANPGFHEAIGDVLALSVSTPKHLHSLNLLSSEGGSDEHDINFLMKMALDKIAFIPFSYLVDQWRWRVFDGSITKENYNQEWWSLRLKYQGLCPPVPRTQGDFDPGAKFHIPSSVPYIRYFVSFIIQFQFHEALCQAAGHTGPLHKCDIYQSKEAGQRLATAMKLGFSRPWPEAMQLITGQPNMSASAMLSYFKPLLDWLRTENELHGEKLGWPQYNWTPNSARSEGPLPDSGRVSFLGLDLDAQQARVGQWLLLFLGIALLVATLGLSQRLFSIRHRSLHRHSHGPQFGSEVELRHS

Compound: CC(C)C[C@H](NC(=O)CNC(=O)[C@H](CCC(=O)O)NC(=O)[C@@H]1CCCN1C(=O)[C@@H](N)C(C)C)C(=O)N[C@@H](CC(N)=O)C(=O)N[C@@H](CO)C(=O)N[C@@H](Cc1c[nH]c2ccccc12)C(=O)N1CCC[C@H]1C(=O)N[C@@H](Cc1ccccc1)C(=O)O (H-VPEGLNSWPF-OH)
IC50 [1]: 73.3 µM

Compound: C[C@H](NC(=O)[C@@H](N)CCCCN)C(=O)N[C@@H](CCCCN)C(=O)O (H-Lys-Ala-Lys-OH)
IC50 [1]: 1860 µM

Compound: C[C@H](NC(=O)[C@@H](N)CCCCN)C(=O)N[C@@H](CCCCN)C(=O)N[C@@H](Cc1ccccc1)C(=O)O (H-KAKF-OH)
IC50 [1]: 12.5 µM

Compound: C[C@H](NC(=O)[C@@H](N)CCCCN)C(=O)N[C@@H](CCCCN)C(=O)N[C@@H](Cc1c[nH]c2ccccc12)C(=O)O (H-KAKW-OH)
-TdeltaS [3]: -1.57 kcal/mol
deltaH [4]: -8.31 kcal/mol
IC50 [1]: 2.02 µM
deltaS [5]: 5.28 cal/mol.K
deltaG [6]: -9.88 kcal/mol
Kd [7]: 0.0577 µM
Activity [8]: Active
Activity [9]: 20 mmHg
Activity [10]: 18 mmHg
Activity [11]: Active
Activity [12]: Active
Activity [13]: 11 mmHg
Activity [14]: 12 mmHg
Activity [15]: Active
Activity [16]: Active
Activity [17]: 28%
Activity [18]: 105%
Activity [19]: 45%
Activity [20]: Active
Activity [21]: Active
Activity [22]: Active
Activity [23]: Active
fold change (FC) [24]: 1.5
fold change (FC) [25]: 4.4
fold change (FC) [26]: 4.4
Activity [27]: 85%
fold change (FC) [28]: 1.8
fold change (FC) [29]: 2.6
Activity [30]: 44%
Activity [31]: 43%
fold change (FC) [32]: 2
fold change (FC) [33]: 2.3

Compound: CC(C)C[C@H](NC(=O)[C@H](CO)NC(=O)[C@@H](NC(=O)CNC(=O)CNC(=O)[C@H](Cc1ccc(O)cc1)NC(=O)CNC(=O)[C@@H](N)CCCCN)C(C)C)C(=O)N1CCC[C@H]1C(=O)N[C@@H](CCC(=O)O)C(=O)N[C@@H](Cc1c[nH]c2ccccc12)C(=O)O (H-KGYGGVSLPEW-OH)
Activity [35]: 20 mmHg
Activity [36]: 27 mmHg

Continued, values first:

IC50 [2]: 5 µM
Compound: CC(C)C[C@H](NC(=O)[C@H](Cc1c[nH]c2ccccc12)NC(=O)[C@@H](N)CCCCN)C(=O)N1CCC[C@H]1C(=O)O (H-KWLP-OH)

IC50 [1]: 789 µM
Compound: CSCC[C@H](NC(=O)[C@H](CCCCN)NC(=O)[C@H](C)NC(=O)[C@@H](N)CCCCN)C(=O)O (H-KAKM-OH)

IC50 [1]: 2920 µM
Compound: CC(C)[C@H](NC(=O)[C@H](CCCCN)NC(=O)[C@H](C)NC(=O)[C@@H](N)CCCCN)C(=O)O (H-KAKV-OH)

IC50 [34]: 5.42 µM
Compound: CC(C)C[C@H](N)C(=O)N[C@@H](C)C(=O)N1CCC[C@H]1C(=O)N[C@@H](Cc1ccc(O)cc1)C(=O)N[C@@H](Cc1c[nH]c2ccccc12)C(=O)O (H-LAPYW-OH)
